Like-named read-outs stand apart in the source and are kept apart here.
Experiments:
[1] = Caco-2 permeation assay; assay type: in vitro ADME; details: human, read-out: Kp (permeability)
[2] = Phase 1 MAD (Part B) plasma pharmacokinetics in healthy subjects; assay type: in vivo, human; details: for half-life: read-out: t1/2, mean (SD) (converted); for AUC: part B (MAD), 100 to 1000 mg BID
Description: (§1) The plasma PK parameters of the compound of formula (I) calculated following single (Part A) or multiple (Parts B) oral doses.
In each cohort, healthy subjects meeting eligibility criteria were sequentially randomized in a 3:1 ratio to receive either the compound of formula (I) or placebo BID, each morning and evening (approximately 12 hours following the morning dose) for 10 consecutive days of dosing, except for Day 10 where subjects were only received a morning dose. Subjects were dosed in an upright (i.e., seated or standing) position and remained upright for 5 minutes after dosing before a posture change for other study procedures, if applicable. Subjects fasted overnight for at least 9.5 hours prior to morning dose on Day 1 and Day 10. Subjects continued the fast for at least 4 hours post morning dose on these days. For all other morning doses and for all evening doses (i.e., Day 1 evening and Days 2 to 9), subjects were required to fast for at least 2 hours prior and for at least 2 hours following the dose.
PK sampling for the compound of formula (I) in plasma was taken Day 1 pre-morning dose and for 12 hours post-dose and Day 10 pre-morning dose and for 72 hours post Day 10 dose. Additional pre morning dose samples were taken on Days 2, 4, 6, and 8.
(§2) For all subjects, blood samples for the determination of plasma concentration of the compound of formula (I) were collected at scheduled time points. Blood samples were analyzed to calculate different plasma PK parameters in both part A and part B.
(§3) For all PK data analyses, the PK analysis set was used. Individual subject and mean plasma drug concentration versus time curves for the compound of formula (I) were presented for each dose group. Summary statistics (mean, standard deviation, coefficient of variation, median, minimum, maximum, geometric mean, geometric coefficient of variation, number of subjects) were calculated for plasma concentrations at each time point for each dose group, and the PK parameters for each dose group. Urine PK parameters were summarized for exploratory purposes.

[3] = system: IL-2 induced pSTAT5; assay: Murine model of IL-2 induced pSTAT5 induction in the thymus; assay type: in vivo
[4] = Phase 1 pharmacokinetics across all SAD and MAD cohorts; assay type: in vivo; details: human, plasma, oral
Description: as §1, §2, §3

[5] = system: splenic NK cell counts; assay: Immunosuppression model in mice (splenic NK cell counts); assay type: in vivo; details: same or higher doses than required for efficacy in the oxazolone model
From the text: Oxazolone-induced colitis is an experimental model that has a histological resemblance to human ulcerative colitis.

[6] = Colon and plasma mouse pharmacokinetics; assay type: in vivo
[7] = Phase 1 SAD (Part A) plasma and urine pharmacokinetics in healthy subjects; assay type: in vivo, human; details: for AUC(0-inf) / Cmax / Tmax / half-life: human, plasma; for Tmax: read-out: Tmax, median (min, max); for half-life: read-out: t1/2, mean (SD) (converted)
Description: as §1
In each cohort, healthy subjects meeting eligibility criteria were sequentially randomized in a 3:1 ratio to receive either the compound of formula (I) or matching placebo. Study drug was administered orally as a single dose on the morning of Day 1 following an overnight fast of at least 9.5 hours. Subjects were dosed in an upright (i.e., seated or standing) position and remained upright for 5 minutes following dosing prior to performing study procedures which require a posture change. Subjects were to remain fasted, except water, until after the 4-hour post-dose assessments were completed and the 4-hour post dose PK sample was collected. PK sampling for the compound of formula (I) in plasma and urine were taken Day 1 pre-dose and for 72 hours post-dose.
as §2
Urine samples for the determination of concentration of the compound of formula (I) were collected at various posedose intervals only in part A.
as §3

[8] = plasma, Day 1, 100 mg BID, n = 6
[9] = plasma, Day 1, 300 mg BID, n = 6
[10] = plasma, Day 1, 1000 mg BID, n = 6
[11] = plasma, Day 10, 100 mg BID, n = 6
[12] = plasma, Day 10, 300 mg BID, n = 6
[13] = single oral dose 1000 mg, n = 6
[14] = single oral dose 2000 mg, n = 6

Papp [1]: < 50 nm/s
time to steady state ([2]; 100 mg BID): 7 days
Accumulation ratio (AUC0-12,ss/AUC0-12), Geometric mean (CV %) ([2]; 100 mg BID, n = 6): 2.5 (35.2)
Accumulation ratio (AUC0-12,ss/AUC0-12), Mean (SD) ([2]; 100 mg BID, n = 6): 2.6 (0.78)
time to steady state ([2]; 300 mg BID): 3 days
Accumulation ratio (AUC0-12,ss/AUC0-12), Geometric mean (CV %) ([2]; 300 mg BID, n = 6): 2.3 (51.9)
Accumulation ratio (AUC0-12,ss/AUC0-12), Mean (SD) ([2]; 300 mg BID, n = 6): 2.5 (1.1)
fold mean Cmax,ss below the protein-adjusted JAK3 IC50 ([2]; 1000 mg BID): approximately 11 fold
time to steady state ([2]; 1000 mg BID): 3 days
Accumulation ratio (AUC0-12,ss/AUC0-12), Geometric mean (CV %) ([2]; 1000 mg BID, n = 6): 2.3 (92.5)
Accumulation ratio (AUC0-12,ss/AUC0-12), Mean (SD) ([2]; 1000 mg BID, n = 6): 2.9 (1.7)
dose proportionality of exposure (AUC and Cmax) ([2]; after multiple-dose administration): dose proportionally
Tmax ([2]; both sexes, human, oral, plasma, Day 10 (morning dose), 100 mg BID, n = 6, read-out: Tmax,ss, median (min, max)): 2 h
half-life ([2]; both sexes, human, oral, plasma, Day 10 (morning dose), 100 mg BID, n = 6): 19.8 h
Tmax ([2]; both sexes, human, oral, plasma, Day 10 (morning dose), 300 mg BID, n = 6, read-out: Tmax,ss, median (min, max)): 1 h
half-life ([2]; both sexes, human, oral, plasma, Day 10 (morning dose), 300 mg BID, n = 6): 19.2 h
Tmax ([2]; both sexes, human, oral, plasma, Day 10 (morning dose), 1000 mg BID, n = 6, read-out: Tmax,ss, median (min, max)): 1 h
half-life ([2]; both sexes, human, oral, plasma, Day 10 (morning dose), 1000 mg BID, n = 6): 18.5 h
AUC(0-t) ([2]; both sexes, human, plasma, oral, 100 mg, plasma, Day 1 (morning dose), 100 mg BID, n = 6, read-out: AUC0-12, mean (SD)): 0.0035 µg·h/mL
AUC(0-t) ([2]; both sexes, human, plasma, oral, 100 mg, plasma, Day 10 (morning dose), 100 mg BID, n = 6, read-out: AUC0-12,ss, mean (SD)): 0.0089 µg·h/mL
Cmax ([2]; both sexes, human, plasma, oral, 100 mg, plasma, Day 10 (morning dose), 100 mg BID, n = 6, read-out: Cmax,ss, mean (SD)): 1.7 ng/mL
AUC(0-t) ([2]; both sexes, human, plasma, oral, 300 mg, plasma, Day 1 (morning dose), 300 mg BID, n = 6, read-out: AUC0-12, mean (SD)): 0.0085 µg·h/mL
AUC(0-t) ([2]; both sexes, human, plasma, oral, 300 mg, plasma, Day 10 (morning dose), 300 mg BID, n = 6, read-out: AUC0-12,ss, mean (SD)): 0.0169 µg·h/mL
Cmax ([2]; both sexes, human, plasma, oral, 300 mg, plasma, Day 10 (morning dose), 300 mg BID, n = 6, read-out: Cmax,ss, mean (SD)): 3.5 ng/mL
AUC(0-t) ([2]; both sexes, human, plasma, oral, 1000 mg, plasma, Day 1 (morning dose), 1000 mg BID, n = 6, read-out: AUC0-12, mean (SD)): 0.0374 µg·h/mL
AUC(0-t) ([2]; both sexes, human, plasma, oral, 1000 mg, plasma, Day 10 (morning dose), 1000 mg BID, n = 6, read-out: AUC0-12,ss, mean (SD)): 0.0621 µg·h/mL
Cmax ([2]; both sexes, human, plasma, oral, 1000 mg, plasma, Day 10 (morning dose), 1000 mg BID, n = 6, read-out: Cmax,ss, mean (SD)): 13.3 ng/mL
Tmax ([2]; human, oral, plasma, Day 1 (morning dose), 100 mg BID, n = 6, read-out: Tmax, median (min, max)): 1.5 h
Tmax ([2]; human, oral, plasma, Day 1 (morning dose), 300 mg BID, n = 6, read-out: Tmax, median (min, max)): 1 h
Tmax ([2]; human, oral, plasma, Day 1 (morning dose), 1000 mg BID, n = 6, read-out: Tmax, median (min, max)): 1.5 h
Cmax ([2]; human, plasma, oral, 100 mg, plasma, Day 1 (morning dose), 100 mg BID, n = 6, read-out: Cmax, mean (SD)): 0.78 ng/mL
Cmax ([2]; human, plasma, oral, 300 mg, plasma, Day 1 (morning dose), 300 mg BID, n = 6, read-out: Cmax, mean (SD)): 2.6 ng/mL
Cmax ([2]; human, plasma, oral, 1000 mg, highest tested dose (1000 mg BID), read-out: mean Cmax,ss (maximum observed concentration at steady-state)): 13 ng/mL
Cmax ([2]; human, plasma, oral, 1000 mg, plasma, Day 1 (morning dose), 1000 mg BID, n = 6, read-out: Cmax, mean (SD)): 10.7 ng/mL
AUC ([2]; human, plasma, oral, read-out: AUCss0-12 in the plasma of the subjects (range)): 0.00543 to 0.0885 µg·h/mL
AUC ([2]; human, plasma, oral, read-out: average AUCss0-12): 0.00894 to 0.0621 µg·h/mL
concentration at 10 days ([2]; human, plasma, oral, multiple doses up to 1000 mg BID, read-out: Plasma concentrations): < 35 ng/mL
Dose normalized AUC0-12/D, mean (SD) [2, 8]: 0.035 (0.012) ng*hr/mL/mg
Dose normalized Cmax/D, mean (SD) [2, 8]: 0.0078 (0.0033) ng/mL/mg
Dose normalized AUC0-12/D, mean (SD) [2, 9]: 0.028 (0.016) ng*hr/mL/mg
Dose normalized Cmax/D, mean (SD) [2, 9]: 0.0086 (0.0079) ng/mL/mg
Dose normalized AUC0-12/D, mean (SD) [2, 10]: 0.037 (0.039) ng*hr/mL/mg
Dose normalized Cmax/D, mean (SD) [2, 10]: 0.011 (0.013) ng/mL/mg
Dose normalized AUC0-12,ss/D, mean (SD) [2, 11]: 0.089 (0.036) ng*hr/mL/mg
Dose normalized Cmax,ss/D, mean (SD) [2, 11]: 0.017 (0.0080) ng/mL/mg
Dose normalized AUC0-12,ss/D, mean (SD) [2, 12]: 0.056 (0.012) ng*hr/mL/mg
Dose normalized Cmax,ss/D, mean (SD) [2, 12]: 0.012 (0.0045) ng/mL/mg
Dose normalized Cmax,ss/D, mean (SD) ([2]; plasma, Day 10, 1000 mg BID, n = 6): 0.013 (0.0084) ng/mL/mg
half-life ([4]; across all doses in the SAD and MAD cohorts, read-out: mean terminal elimination half-life): 15 to 20 h
Cmax ([4]; across all doses, read-out: highest observed Cmax): 34.3 ng/mL
splenic NK cell counts [5]: unaffected
Kp ([6]; colon/plasma, mouse, oral administration, read-out: ratio of exposure in the colon to exposure in plasma): > 1250
permeability coefficient (Papp) ([6]; stated in the sentence on the colon and plasma mouse pharmacokinetics study): less than 10×10^−6 cm/sec
dose proportionality of exposure (AUC and Cmax) ([7]; across the studied single-dose range): slightly less than dose proportional
Urinary excretion, average ([7]; all single-dose levels): < 0.1%
AUC(0-inf) ([7]; both sexes, oral, part A (SAD), 100 to 2000 mg, read-out: AUC0-inf in the plasma of the subjects (range)): 0.0027 to 0.172 µg·h/mL
AUC(0-inf) ([7]; both sexes, oral, part A (SAD), 100 to 2000 mg, read-out: average AUC0-inf): 0.00838 to 0.096 µg·h/mL
Cmax ([7]; both sexes, oral, single dose of 2000 mg, read-out: average Cmax): 10 ng/mL
AUC(0-inf) ([7]; po, 100 mg, single oral dose 100 mg, n = 6, read-out: AUCinf, mean (SD)): 0.0084 µg·h/mL
AUC(0-inf) ([7]; po, 300 mg, single oral dose 300 mg, n = 6, read-out: AUCinf, mean (SD)): 0.0246 µg·h/mL
AUC(0-inf) ([7]; po, 1000 mg, single oral dose 1000 mg, one subject excluded, read-out: AUCinf, mean (SD)): 0.047 µg·h/mL
AUC(0-inf) ([7]; po, 2000 mg, single oral dose 2000 mg, n = 6, read-out: AUCinf, mean (SD)): 0.096 µg·h/mL
Cmax ([7]; single oral dose 100 mg, n = 6, read-out: Cmax, mean (SD)): 1.3 ng/mL
Tmax ([7]; single oral dose 100 mg, n = 6): 1 h
half-life ([7]; single oral dose 100 mg, n = 6): 17.5 h
Cmax ([7]; single oral dose 300 mg, n = 6, read-out: Cmax, mean (SD)): 3.4 ng/mL
Tmax ([7]; single oral dose 300 mg, n = 6): 1 h
half-life ([7]; single oral dose 300 mg, n = 6): 14.5 h
Cmax ([7]; single oral dose 1000 mg, n = 6, read-out: Cmax, mean (SD)): 4.8 ng/mL
Tmax [7, 13]: 1 h
half-life ([7]; single oral dose 1000 mg, one subject excluded): 16.6 h
Cmax ([7]; single oral dose 2000 mg, n = 6, read-out: Cmax, mean (SD)): 10.1 ng/mL
Tmax [7, 14]: 2 h
half-life [7, 14]: 16.6 h
Plasma concentrations ([7]; single oral doses up to 2000 mg): < 35 ng/mL
fe0-72 (percentage of dose excreted in urine over 0 to 72 hours), mean (SD) ([7]; single oral dose 100 mg, n = 6): 0.10 (0.051) %
fe0-72 (percentage of dose excreted in urine over 0 to 72 hours), mean (SD) ([7]; single oral dose 300 mg, n = 6): 0.082 (0.025) %
fe0-72 (percentage of dose excreted in urine over 0 to 72 hours), mean (SD) [7, 13]: 0.056 (0.025) %
fe0-72 (percentage of dose excreted in urine over 0 to 72 hours), mean (SD) [7, 14]: 0.063 (0.028) %
Compound: CN(C)C/C=C/C(=O)N1CC(COc2cc(-c3ccc(O)cc3)cc3[nH]ncc23)C1 [compound of formula (I)]
systemic activity (IL-2 induced pSTAT5 induction in the thymus) [3]: lack of systemic activity
